Data as given in publication PMC5635026, “Homo-PROTACs: bivalent small-molecule dimerizers of the VHL E3 ubiquitin ligase to induce self-degradation” (Nature Communications, 2017).

What was measured:
HeLa cells = experiment: Isobaric tagging (TMT) MS proteomics in HeLa cells, proteome-wide degradation; type: cell-based, Human; conditions: 1 µM for 10 h, compared to DMSO or VHL inhibitor treatment
Procedure: (§1) MS proteomics. Sample preparation. HeLa cells were seeded at 5 × 10^6 on a 10 cm plate 16 h before treatment. […] Cells were incubated at 37 °C and 5% CO2 for 10 h before harvesting. Cells were placed on ice and medium was removed and cells were washed twice with cold PBS. Cells were lysed in 0.5 ml of 100 mM Tris pH 8.0, 4% (w/v) SDS supplemented with protease inhibitor cocktail (Roche). The lysate was pulse sonicated briefly and then centrifuged at 17,000 × g for 15 min at 4 °C. The supernatant fraction of cell extract was snap-frozen in liquid nitrogen and stored in −80 °C freezer. Further sample processing, digestion, desalting, labeling and fractionation were performed as previously described.
(§2) nLC-MS/MS analysis. The TMT 10plex fractions were first analyzed as previously described. Briefly, the TMT 10plex fractions were analyzed sequentially on a Q Exactive HF Hybrid Quadrupole-Orbitrap Mass Spectrometer (Thermo Scientific) coupled to an UltiMate 3000 RSLCnano UHPLC system (Thermo Scientific) and EasySpray column (75 μm × 50 cm, PepMap RSLC C18 column, 2 μm, 100 Å, Thermo Scientific). The MS2 isolation window was set to 0.4 Da and the resolution set at 120,000. MS2 resolution was set at 60,000. The AGC targets for MS1 and MS2 were set at 3e^6 ions and 1e5 ions, respectively. The normalized collision energy was set at 32%. […] After the first analysis, the TMT labeled fractions were re-analyzed on the Q-Exactive HF using the same instrument settings and a target list generated from a theoretical trypsin digest of VHL. […] After the second analysis, two fractions were further analyzed using a targeted SIM/ddMS2 method on the Q-Exactive HF. […]
(§3) Peptide and protein identification. All the raw MS data files from the three analyses were merged and searched against the Uniprot-sprot-Trembl-Human-Canonical database by Maxquant software 1.5.3.30 for protein identification and TMT reporter ion quantitation. […] Quantified proteins were filtered if the absolute fold-change difference between the two DMSO replicates was ≥ 1.5.

[1] = system: Leucine-rich repeat-containing protein 42 (LRRC42); experiment: TMT MS proteomics in HeLa cells, LRRC42 abundance; type: cell-based, Homo sapiens; conditions: 1 µM, 10 h, two replicates
Procedure: as §1, §2, §3

Alsin (ALS2) = experiment: TMT MS proteomics in HeLa cells, ALS2 abundance; type: cell-based, Homo sapiens; conditions: 1 µM, 10 h, two replicates
Procedure: as §1, §2, §3

pVHL30 = pVHL30 (Homo sapiens, UniProt P40337); experiment: Immunoblot of pVHL30 protein level in HeLa cells after compound treatment; type: cell-based; parameters: endogenous in cells; host or cells: HeLa; conditions: for depletion of target protein (pVHL30 / VHL) / remaining activity at 1 µM: 10 h; for remaining activity at 1 µM: DMSO = 100, Fig. 4a, read-out: pVHL30 band quantification normalized to 0.1% DMSO
Sequence of pVHL30 (P40337 whole entry): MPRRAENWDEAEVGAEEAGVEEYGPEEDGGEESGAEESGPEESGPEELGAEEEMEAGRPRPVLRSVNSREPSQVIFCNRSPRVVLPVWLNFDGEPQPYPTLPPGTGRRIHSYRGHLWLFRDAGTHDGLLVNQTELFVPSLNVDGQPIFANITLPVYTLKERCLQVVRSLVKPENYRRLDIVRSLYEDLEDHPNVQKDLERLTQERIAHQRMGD
Procedure: (§4) Cell culture. Human cell lines HeLa, U2OS and HEK 293, purchased from ATCC, were propagated in DMEM supplemented with 10% fetal bovine serum (FBS), L- glutamine, 100 μg ml^−1 of penicillin/streptomycin at 37 °C and 5% CO2. Cells were maintained for no more than 30 passages. All cell lines were routinely tested for mycoplasma contamination using MycoAlert kit from Lonza. For compound treatment experiments, cells were transferred in six-well plates with either 3 × 10^5 or 5 × 10^5 cells per well in 2 ml of media. At 80% confluence, cells were treated with compounds at the desired concentration, reaching final DMSO concentration of 0.1% v/v. Cells were incubated at 37 °C and 5% CO2 for the desired time before harvesting.
(§5) Immunoblotting. Cells were lysed in lysis buffer (20 mM Tris pH 8, 150 mM NaCl, 1% Triton × 100) and a protease inhibitor cocktail (Roche) per 10 ml buffer. For protein extracts, the dishes were placed on ice. The media was aspirated and the tissue layer washed twice with ice-cold phosphate buffer saline (PBS). Lysis buffer (120 μl) was added and the cells detached from the surface with a cell scraper. After removal of the insoluble fraction by centrifugation, the protein concentration of the supernatant was determined by Pierce™ Coomassie (Bradford) Protein Assay Kit. Protein extracts were fractionated by SDS-PAGE on 4–12% Tris-Acetate NuPage® Novex® (Life Technologies) polyacrylamide gels and transferred to a nitrocellulose membrane using wet transfer. The membrane was then blocked with 5 % w/v Bovine serum albumin (BSA) in Tris-buffered saline (TBS) with 0.1% w/v Tween-20. For detecting proteins the following primary antibodies in the given concentrations were used: anti-β-Actin (Cell Signaling Technology, 4970S, 13E5) 1:2000, anti-VHL (Cell Signaling Technology, #68547) 1:1000, anti-Hif-1α (BD Biosciences, 610959, clone 54) 1:1,000, anti-hydroxy-HIF-1α (Hyp564) (Cell Signaling Techonology; #3434) 1:1,000, anti-PHD2 (Bethyl Laboratories; A300-322A) 1:1,000, anti-PHD3 (Bethyl Laboratories; A300-327A) 1:1000, anti-CRBN (Proteintech; 11435-1-AP) 1:1,000. Following incubation with a horseradish peroxidase-conjugated secondary antibody (Cell Signaling Technology), the signal was developed using enhanced chemiluminescence (ECL) Western Blotting Detection Kit (Amersham) on Amersham Hyperfilm ECL film (Amersham). Band quantification was performed using ImageJ software and reported as relative amount as ratio of the each protein band relative to the lane’s loading control. The values obtained were then normalized to 0.1% DMSO vehicle control. See Supplementary Fig. 12 for full-scanned images of western-blots shown in the main text figures.

pVHL19 = pVHL19 (Homo sapiens, UniProt P40337); experiment: Immunoblot of pVHL19 protein level in HeLa cells after compound treatment; type: cell-based; parameters: endogenous in cells; host or cells: HeLa; conditions: 1 µM, 10 h, DMSO = 100, Fig. 4a, read-out: pVHL19 band quantification normalized to 0.1% DMSO
Sequence of pVHL19 (P40337 54-213): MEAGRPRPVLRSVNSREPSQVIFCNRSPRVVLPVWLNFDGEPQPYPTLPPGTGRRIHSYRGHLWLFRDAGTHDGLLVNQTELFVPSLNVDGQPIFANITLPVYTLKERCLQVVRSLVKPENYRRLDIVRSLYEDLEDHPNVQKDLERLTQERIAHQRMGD
Sequence of pVHL19 (Q15369 whole entry partner): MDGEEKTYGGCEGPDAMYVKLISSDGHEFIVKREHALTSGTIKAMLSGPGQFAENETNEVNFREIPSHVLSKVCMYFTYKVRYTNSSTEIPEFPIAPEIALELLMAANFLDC
Sequence of pVHL19 (Q15370 whole entry partner): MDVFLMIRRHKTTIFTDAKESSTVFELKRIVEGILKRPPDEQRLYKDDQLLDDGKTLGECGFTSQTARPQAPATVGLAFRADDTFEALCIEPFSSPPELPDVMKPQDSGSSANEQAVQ
Procedure: as §4, §5

| depletion of target protein (pVHL30 / VHL) (pVHL30; 1 µM) | remaining activity at 1 µM (pVHL30; 1 µM) | remaining activity at 1 µM (pVHL19) | degradation of pVHL in time course (pVHL30; 1 µM, even in the longer time points) | increase in cellular activity compared to parent inhibitor VH032 (pVHL30) | pVHL30 levels detected (pVHL30; 1 µM, after 24–36 h treatment) | decrease of pVHL30 level (pVHL30; 1 µM, after 2 h) | decrease of pVHL30 level (pVHL30; 1 µM, after 8 h) | DC99 (complete depletion of pVHL30) (pVHL30; 4 h) | effective degrading concentrations lower than inhibitory concentrations of VH032 (pVHL30; compared to VH032) | SMILES | proteins depleted amongst 6,450 detected proteins (HeLa cells) | average normalized ratio to DMSO, LRRC42 [1] | average normalized ratio to DMSO, ALS2 (Alsin (ALS2)) |
| --- | --- | --- | --- | --- | --- | --- | --- | --- | --- | --- | --- | --- | --- |
| total knockdown | 3% | 92% | – | – | – | – | – | – | – | Cc1ncsc1-c1ccc(CNC(=O)[C@@H]2C[C@@H](O)CN2C(=O)[C@@H](NC(=O)COCCOCCOCCOCCOCC(=O)N[C@H](C(=O)N2C[C@H](O)C[C@H]2C(=O)NCc2ccc(-c3scnc3C)cc2)C(C)(C)C)C(C)(C)C)cc1 [CM10, N ^1 ,N ^17-bis((S)-1-((2S,4R)-4-hydroxy-2-((4-(4-methylthiazol-5-yl)benzyl)carbamoyl)pyrrolidin-1-yl)-3,3-dimethyl-1-oxobutan-2-yl)-3,6,9,12,15-pentaoxaheptadecanediamide] | no proteins other than Cul2 were substantially depleted | 0.64 | 1.00 |
| – | 19% | 102% | Incomplete degradation | – | – | – | – | – | – | Cc1ncsc1-c1ccc(CNC(=O)[C@@H]2C[C@@H](O)CN2C(=O)[C@@H](NC(=O)COCCOCCOCCOCC(=O)N[C@H](C(=O)N2C[C@H](O)C[C@H]2C(=O)NCc2ccc(-c3scnc3C)cc2)C(C)(C)C)C(C)(C)C)cc1 [CM09, N ^1 ,N ^14-bis((S)-1-((2S,4R)-4-hydroxy-2-((4-(4-methylthiazol-5-yl)benzyl)carbamoyl)pyrrolidin-1-yl)-3,3-dimethyl-1-oxobutan-2-yl)-3,6,9,12-tetraoxatetradecanediamide] | no proteins other than Cul2 were substantially depleted | 2.15 | 0.98 |
| total knockdown | 1% | 91% | – | > 1000 fold | up to 11% | > 70% | essentially to completion | 10 nM | > 3 orders of magnitude | Cc1ncsc1-c1ccc(CNC(=O)[C@@H]2C[C@@H](O)CN2C(=O)[C@@H](NC(=O)COCCOCCOCCOCCOCCOCC(=O)N[C@H](C(=O)N2C[C@H](O)C[C@H]2C(=O)NCc2ccc(-c3scnc3C)cc2)C(C)(C)C)C(C)(C)C)cc1 [CM11, N ^1 ,N ^20-bis((S)-1-((2S,4R)-4-hydroxy-2-((4-(4-methylthiazol-5-yl)benzyl)carbamoyl)pyrrolidin-1-yl)-3,3-dimethyl-1-oxobutan-2-yl)-3,6,9,12,15,18-hexaoxaicosanediamide] | no proteins other than Cul2 were substantially depleted | 0.60 | 0.98 |
